US20230398130A1, “METHODS AND COMPOSITIONS FOR DIFFERENTIATING STEM CELLS” (Massachusetts Institute of Technology, priority 2020, published 2023)

How the values were obtained:
ISC-enriched organoids [1] = assay: Primary screen, 384-well 2.5-D organoid differentiation (ENR+CD, 6 days): basal lysozyme secretion (LYZ.NS); type: cell-based, murine; conditions: for Dose.FC.LYZ.NS (log 2 fold change, basal lysozyme secretion) / Dose.FC.LYZ.NS (log 2 fold change): vs plate median; for Dose.FC.LYZ.NS: ENR+CD, 6 days, FC vs plate median; for Z.LYZ.NS: standard z score of FC
Excerpt: (§1) High-throughput screening.

ISC-enriched organoids [2] = assay: Primary screen, 384-well 2.5-D organoid differentiation (ENR+CD, 6 days, Target Selective Inhibitor Library, vs whole-plate median): ATP (CellTiter-Glo 3D, CTG); conditions: for Dose.FC.CTG (log 2 fold change, ATP) / Dose.FC.CTG (log 2 fold change): vs plate median; for Dose.FC.CTG: ENR+CD, 6 days, FC vs plate median; for Z.CTG: standard z score of FC
ISC-enriched organoids [3] = assay: Primary screen, 384-well 2.5-D organoid differentiation (ENR+CD, 6 days): carbachol-induced lysozyme secretion (LYZ.S); type: cell-based, murine; conditions: for Dose.FC.LYZ.S (log 2 fold change, carbachol-induced lysozyme secretion) / Dose.FC.LYZ.S (log 2 fold change): vs plate median; for Dose.FC.LYZ.S: ENR+CD, 6 days, FC vs plate median; for Dose.FC.LYZ.S (log 2 fold change): primary screen
Excerpt: as §1

Row | SMILES | Z.LYZ.NS (standard z score) (ISC-enriched organoids [1]; dose 0.08 uM) | Dose.FC.LYZ.NS (log 2 fold change, basal lysozyme secretion) (ISC-enriched organoids [1]; dose 0.08 uM) | Z.LYZ.NS (standard z score) (ISC-enriched organoids [1]; dose 0.40 uM) | Dose.FC.LYZ.NS (log 2 fold change, basal lysozyme secretion) (ISC-enriched organoids [1]; dose 0.40 uM) | Z.LYZ.NS (standard z score) (ISC-enriched organoids [1]; dose 2.00 uM) | Dose.FC.LYZ.NS (log 2 fold change, basal lysozyme secretion) (ISC-enriched organoids [1]; dose 2.00 uM) | Z.LYZ.NS (standard z score) (ISC-enriched organoids [1]; dose 10.00 uM) | Dose.FC.LYZ.NS (log 2 fold change, basal lysozyme secretion) (ISC-enriched organoids [1]; dose 10.00 uM) | Z.CTG (standard z score) (ISC-enriched organoids [2]; dose 0.08 uM) | Dose.FC.CTG (log 2 fold change, ATP) (ISC-enriched organoids [2]; dose 0.08 uM) | Z.CTG (standard z score) (ISC-enriched organoids [2]; dose 0.40 uM) | Dose.FC.CTG (log 2 fold change, ATP) (ISC-enriched organoids [2]; dose 0.40 uM) | Z.CTG (standard z score) (ISC-enriched organoids [2]; dose 2.00 uM) | Dose.FC.CTG (log 2 fold change, ATP) (ISC-enriched organoids [2]; dose 2.00 uM) | Z.CTG (standard z score) (ISC-enriched organoids [2]; dose 10.00 uM) | Dose.FC.CTG (log 2 fold change, ATP) (ISC-enriched organoids [2]; dose 10.00 uM) | Dose.FC.LYZ.S (log 2 fold change, carbachol-induced lysozyme secretion) (ISC-enriched organoids [3]; dose 0.08 uM) | Dose.FC.LYZ.S (log 2 fold change, carbachol-induced lysozyme secretion) (ISC-enriched organoids [3]; dose 0.40 uM) | Dose.FC.LYZ.S (log 2 fold change, carbachol-induced lysozyme secretion) (ISC-enriched organoids [3]; dose 2.00 uM) | Dose.FC.LYZ.S (log 2 fold change, carbachol-induced lysozyme secretion) (ISC-enriched organoids [3]; dose 10.00 uM) | other results
1 | COc1cc2ncnc(Nc3ccc(Cl)cc3F)c2cc1OC [ZM 306416] | 0.912 | 0.105 | −1.942 | −0.223 | −2.531 | −0.291 | −2.395 | −0.275 | −0.190 | −0.080 | −1.155 | −0.483 | −3.135 | −1.312 | −3.559 | −1.490 | 0.006 | −0.288 | −0.403 | −0.431 | 
2 | CC(C)C[C@H](NC(=O)[C@@H](NC(=O)c1cccc(-c2ccccc2)n1)[C@@H](C)O)B(O)O [CEP-18770 (Delanzomib)] |  |  |  |  |  |  |  |  |  |  |  |  |  |  |  |  |  |  |  |  | Dose.FC.LYZ.NS (ISC-enriched organoids [1]; Dose 0.08 uM): −0.108 log 2 fold change; Z.LYZ.NS (ISC-enriched organoids [1]; Dose 0.08 uM): −0.937; Dose.FC.LYZ.NS (ISC-enriched organoids [1]; Dose 0.40 uM): −0.076 log 2 fold change; Z.LYZ.NS (ISC-enriched organoids [1]; Dose 0.40 uM): −0.664; Dose.FC.LYZ.NS (ISC-enriched organoids [1]; Dose 2.00 uM): −0.063 log 2 fold change; Z.LYZ.NS (ISC-enriched organoids [1]; Dose 2.00 uM): −0.546; Dose.FC.LYZ.NS (ISC-enriched organoids [1]; Dose 10.00 uM): −0.035 log 2 fold change; Z.LYZ.NS (ISC-enriched organoids [1]; Dose 10.00 uM): −0.308; Dose.FC.CTG (ISC-enriched organoids [2]; Dose 0.08 uM): −0.953 log 2 fold change; Z.CTG (ISC-enriched organoids [2]; Dose 0.08 uM): −2.276; Dose.FC.CTG (ISC-enriched organoids [2]; Dose 0.40 uM): −1.642 log 2 fold change; Z.CTG (ISC-enriched organoids [2]; Dose 0.40 uM): −3.923; Dose.FC.CTG (ISC-enriched organoids [2]; Dose 2.00 uM): −0.990 log 2 fold change; Z.CTG (ISC-enriched organoids [2]; Dose 2.00 uM): −2.364; Dose.FC.CTG (ISC-enriched organoids [2]; Dose 10.00 uM): −1.148 log 2 fold change; Z.CTG (ISC-enriched organoids [2]; Dose 10.00 uM): −2.742; Dose.FC.LYZ.S (ISC-enriched organoids [3]; Dose 0.08 uM): −0.179 log 2 fold change; Dose.FC.LYZ.S (ISC-enriched organoids [3]; Dose 0.40 uM): −0.159 log 2 fold change; Dose.FC.LYZ.S (ISC-enriched organoids [3]; Dose 2.00 uM): −0.180 log 2 fold change; Dose.FC.LYZ.S (ISC-enriched organoids [3]; Dose 10.00 uM): −0.149 log 2 fold change
3 | CCO.N#CC(=C(/N)Sc1ccccc1N)/C(C#N)=C(\N)Sc1ccccc1N [U0126-EtOH] | 0.859 | 0.099 | 0.163 | 0.019 | −0.389 | −0.045 | −1.021 | −0.117 | −0.835 | −0.350 | −1.227 | −0.514 | −1.138 | −0.476 | −1.887 | −0.790 | 0.114 | 0.075 | −0.071 | −0.165 | 
4 | Cc1nn(-c2ccccc2)c(C)c1/C=N/N1CCN(Cc2ccccc2)CC1 [SANT-1] |  |  |  |  |  |  |  |  |  |  |  |  |  |  |  |  |  |  |  |  | Z.LYZ.NS (standard z score) (ISC-enriched organoids [1]; Dose 0.08 uM, primary screen): 0.485; Dose.FC.LYZ.NS (log 2 fold change) (ISC-enriched organoids [1]; Dose 0.08 uM, primary screen): 0.056; Z.LYZ.NS (standard z score) (ISC-enriched organoids [1]; Dose 0.40 uM, primary screen): 0.002; Dose.FC.LYZ.NS (log 2 fold change) (ISC-enriched organoids [1]; Dose 0.40 uM, primary screen): 0.000; Z.LYZ.NS (standard z score) (ISC-enriched organoids [1]; Dose 2.00 uM, primary screen): 1.528; Dose.FC.LYZ.NS (log 2 fold change) (ISC-enriched organoids [1]; Dose 2.00 uM, primary screen): 0.175; Z.LYZ.NS (standard z score) (ISC-enriched organoids [1]; Dose 10.00 uM, primary screen): −0.430; Dose.FC.LYZ.NS (log 2 fold change) (ISC-enriched organoids [1]; Dose 10.00 uM, primary screen): −0.049; Z.CTG (standard z score) (ISC-enriched organoids [2]; Dose 0.08 uM, primary screen): 0.736; Dose.FC.CTG (log 2 fold change) (ISC-enriched organoids [2]; Dose 0.08 uM, primary screen): 0.308; Z.CTG (standard z score) (ISC-enriched organoids [2]; Dose 0.40 uM, primary screen): 0.186; Dose.FC.CTG (log 2 fold change) (ISC-enriched organoids [2]; Dose 0.40 uM, primary screen): 0.078; Z.CTG (standard z score) (ISC-enriched organoids [2]; Dose 2.00 uM, primary screen): 0.327; Dose.FC.CTG (log 2 fold change) (ISC-enriched organoids [2]; Dose 2.00 uM, primary screen): 0.137; Z.CTG (standard z score) (ISC-enriched organoids [2]; Dose 10.00 uM, primary screen): −0.100; Dose.FC.CTG (log 2 fold change) (ISC-enriched organoids [2]; Dose 10.00 uM, primary screen): −0.042; Dose.FC.LYZ.S (log 2 fold change) (ISC-enriched organoids [3]; Dose 0.08 uM): 0.112; Dose.FC.LYZ.S (log 2 fold change) (ISC-enriched organoids [3]; Dose 0.40 uM): 0.024; Dose.FC.LYZ.S (log 2 fold change) (ISC-enriched organoids [3]; Dose 2.00 uM): 0.101; Dose.FC.LYZ.S (log 2 fold change) (ISC-enriched organoids [3]; Dose 10.00 uM): −0.120
